Columns and labels:
E. coli TOP10 F′ = assay: Growth of E. coli control cells on medium containing fosmidomycin; format: cell-based; conditions: TOP10 F′ transformed with parent vectors; LB or LB/IPTG with fosmidomycin 20 μg/ml
Method: Single colonies of TOP10 F′/pHKO2 (designated strain HK6), TOP10 F′/pHKO3 (designated strain HK7), and TOP10 F′/pHKO9 (designated strain HK8), are used to individually inoculate 4 ml LB/amp cultures and grown overnight at 30° C., 225 rpm. The HK6 and HK7 cultures are serially diluted 10,000 to 100,000-fold and plated on LB containing fosmidomycin (20 μg/ml).

DXP reductoisomerase = DXP reductoisomerase (Escherichia coli, UniProt P45568); conditions: Kuzuyama et al., 1998; cited from earlier work
Chain of DXP reductoisomerase (P45568 whole entry): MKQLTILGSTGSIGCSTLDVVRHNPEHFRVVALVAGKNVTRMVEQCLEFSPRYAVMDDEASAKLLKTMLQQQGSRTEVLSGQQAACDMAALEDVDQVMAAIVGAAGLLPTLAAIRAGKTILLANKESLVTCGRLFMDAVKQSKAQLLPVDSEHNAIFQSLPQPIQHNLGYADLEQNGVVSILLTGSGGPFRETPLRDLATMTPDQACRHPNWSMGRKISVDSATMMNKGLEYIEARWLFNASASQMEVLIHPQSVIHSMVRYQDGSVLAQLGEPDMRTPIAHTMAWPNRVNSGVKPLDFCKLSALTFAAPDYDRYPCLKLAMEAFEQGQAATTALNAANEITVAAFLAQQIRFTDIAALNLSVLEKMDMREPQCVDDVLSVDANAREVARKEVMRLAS

[1] = especially in combination with other herbicides; Kamuro et al.; cited from earlier work
[2] = system: Nicotiana tabacum var. ‘Xanthi NC’ leaf sections; assay: Toxicity of fosmidomycin to tobacco grown on medium; conditions: after three weeks of growth on medium

## O=CN(O)CCCP(=O)(O)O [fosmidomycin]
E. coli TOP10 F′
  growth of E. coli control cells on medium containing fosmidomycin: unable to grow
DXP reductoisomerase
  inhibition of the enzyme DXP reductoisomerase: specific inhibitor
[1]
  herbicidal activity: significant herbicidal activity
[2]
  fosmidomycin concentration at which toxicity is evident in tobacco: at least 500 micromolar
